We go through twelve compounds from ChEMBL document CHEMBL4138079, “New cycloartane type-triterpenoids from the areal parts of Caragana sukiensis and their biological activities” (Eur J Med Chem, 2017).

Series [1] concerns Spodoptera litura. The series can be described thus: Toxicity in Spodoptera litura third-instar larvae assessed as increase in larval mortality after 24 hrs by leaf disk method. Particulars: in vivo. Type of series: organism-based.
For another series, the system named is HeLa. The series can be described thus: Cytotoxicity against human HeLa cells assessed as reduction in cell viability after 48 hrs by MTT assay. Type of series: functional, cell-based. Background: Tetrazolium assays rely on reduction of a dye to a coloured formazan, in cell work by metabolically active cells.
The subject of a further series is DU-145. The series can be described thus: Cytotoxicity against human DU145 cells assessed as reduction in cell viability after 48 hrs by MTT assay. Particulars: DU-145, 48 h. Type of series: functional, cell-based.
Another series relates to HEK293. As to the kind of experiment: Cytotoxicity against human HEK293 cells assessed as reduction in cell viability after 48 hrs by MTT assay. The series is classed as cell-based. Particulars: HEK293, 48 h.
Series [2] relates to Spodoptera litura. The series can be described thus: Insecticidal activity in Spodoptera litura third-instar larvae assessed as larval mortality at 5 ug/cm2 after 24 hrs by leaf disk method relative to control. Type of series: functional. Conditions: foliar.
Series [3] relates to Spodoptera litura. As to the kind of experiment: Antifeedant activity in Spodoptera litura third-instar larvae assessed as increase in feeding deterrence after 24 hrs by leaf disk method. Type of series: functional.
Another series has as its system MCF7. The series can be described thus: Cytotoxicity against human MCF7 cells assessed as reduction in cell viability after 48 hrs by MTT assay. The series is classed as functional, cell-based. Conditions: MCF7, 48 h.
The subject of the next series is A549. As to the kind of experiment: Cytotoxicity against human A549 cells assessed as reduction in cell viability after 48 hrs by MTT assay. The series is classed as functional, cell-based. Conditions: A549, 48 h.
The subject of series [4] is Spodoptera litura. The series can be described thus: Antifeedant activity in Spodoptera litura third-instar larvae assessed as increase in feeding deterrence by measuring antifeedant index at 5 ug/cm2 after 24 hrs by leaf disk method. The series is classed as functional.
Series [5] has as its system Spodoptera litura. The series can be described thus: Antifeedant activity in Spodoptera litura assessed as pupal mortality after 24 hrs by leaf disk method (reference value: 0%). The series is classed as functional.
Series [6] has as its system Spodoptera litura. The series can be described thus: Antifeedant activity in Spodoptera litura third-instar larvae assessed as larval duration time after 24 hrs by leaf disk method (reference value: 10.1 +/- 0.1 day). The series is classed as functional.
Series [7] deals with Spodoptera litura. As to the kind of experiment: Antifeedant activity in Spodoptera litura assessed as pupal weight after 24 hrs by leaf disk method (reference value: 0.245 +/- 0.02 g). The series is classed as functional.
Series [8] concerns Spodoptera litura. The series can be described thus: Antifeedant activity in Spodoptera litura third-instar larvae assessed as increase in feeding deterrence by measuring antifeedant index at 2.8 ug/cm2 after 24 hrs by leaf disk method. Type of series: functional.
The test system of series [9] is Spodoptera litura. As to the kind of experiment: Insecticidal activity in Spodoptera litura third-instar larvae assessed as increase in larval mortality at 2.8 ug/cm2 after 24 hrs by leaf disk method relative to control. Type of series: functional. Particulars: foliar.

Structures are written as SMILES.

Take `C[C@@H]1C[C@H]([C@H](O)C(C)(C)O)O[C@H]2O[C@H](O)[C@@]3(C)[C@@H]4CC[C@H]5C(C)(C)[C@@H](O)CC[C@@]56C[C@@]46CC[C@]3(C)[C@H]21`: in the series with Spodoptera litura [1], the LD50 is on record as 0.84 microg/cm2. For the same compound, the IC50 (usually the concentration needed to halve the response being measured) in the series with HeLa came out at 63.8 µM; in the series with DU-145, 62.1 µM; with HEK293, 123 µM; in the series with MCF7, 58.2 µM; in the series on A549 it was 51.1 µM. In addition, the mortality (commonly the share of the test organisms that died) at 5 µg/cm2 in the series with Spodoptera litura [2] came to 86.7%. The ED50 in the series on Spodoptera litura [3] was 0.59 microg/cm2. The Activity_index in the series with Spodoptera litura [4] was found to be 91.8.
`CC(C)(O)[C@@H]1CC[C@](C)([C@H]2[C@@H](O)C[C@@]3(C)[C@@H]4C[C@H](O)[C@H]5C(C)(C)[C@@H](O[C@@H]6OC[C@@H](O)[C@H](O)[C@H]6O)CC[C@@]56C[C@@]46CC[C@]23C)O1`: the mortality in the series on Spodoptera litura [5] amounted to 90.9%. The 50% inhibitory concentration (IC50) in the series with HeLa amounted to 17.4 µM; in the series with DU-145, 19.6 µM; in the series on HEK293, 99.4 µM; in the series on MCF7, 31.2 µM; in the series on A549, 29 µM. In addition, in the series on Spodoptera litura [6], the Time worked out at 13.4 days. Further, the Activity with Spodoptera litura [7] is 0.212 g. In the series on Spodoptera litura [2], the mortality at 5 µg/cm2 was found to be 18.2%. Besides, the ED50 in the series on Spodoptera litura [3] is listed as 15.05 microg/cm2. The Activity_index in the series on Spodoptera litura [4] came to 70.1.
On to `C/C=C(\C)C(=O)O[C@H]1C[C@@H](OC(C)=O)[C@@]2(C(=O)OC)CO[C@H]3[C@@H](O)[C@@](C)([C@]45O[C@@]4(C)[C@H]4C[C@@H]5O[C@@H]5OC=C[C@@]54O)[C@H]4[C@]1(CO[C@]4(O)C(=O)OC)[C@@H]32` [AZADIRACTIN], for which the LD50 in the series with Spodoptera litura [1] was determined as 0.84 microg/cm2. Moreover, in the series on Spodoptera litura [8], the Activity_index is reported as 99.1. Moreover, the mortality at 2.8 µg/cm2 in the series on Spodoptera litura [9] is 100%. Also, in the series on Spodoptera litura [3], the ED50 turned out to be 1.8 microg/cm2.
`C[C@@H]1C[C@H]([C@H](O)C(C)(C)O)O[C@H]2OC(=O)[C@@]3(C)[C@@H]4CC[C@H]5C(C)(C)C(=O)CC[C@@]56C[C@@]46CC[C@]3(C)[C@H]21`: the LD50 in the series on Spodoptera litura [1] worked out at 0.91 microg/cm2. For the same compound, the IC50 worked out at 17.8 µM in the series with HeLa; 22.4 µM with DU-145; 79.3 µM in the series on HEK293; 24.8 µM with MCF7; 16.3 µM in the series with A549. Besides, the mortality at 5 µg/cm2 with Spodoptera litura [2] is 94.6%. For the same compound, the ED50 in the series on Spodoptera litura [3] was determined as 0.67 microg/cm2. Also, in the series with Spodoptera litura [4], the Activity_index stood at 93.6.
With `C[C@@H]1C[C@H]([C@H](O)C(C)(C)O)O[C@H]2O[C@H](O)[C@@]3(C)[C@@H]4CC[C@H]5C(C)(C)C(=O)CC[C@@]56C[C@@]46CC[C@]3(C)[C@H]21`, in the series on Spodoptera litura [5], the mortality stood at 88.5%. Further, the IC50 in the series on HeLa turned out to be 55.3 µM; with DU-145 it was 53.7 µM; in the series on HEK293 it was 167 µM; with MCF7, 38.9 µM; in the series with A549 it was 36.7 µM. Moreover, the Time in the series with Spodoptera litura [6] amounted to 12.6 days. The Activity with Spodoptera litura [7] is 0.221 g. Besides, in the series on Spodoptera litura [2], the mortality at 5 µg/cm2 is 11.5%. The ED50 in the series on Spodoptera litura [3] was 1.195 microg/cm2. Besides, the Activity_index in the series with Spodoptera litura [4] is recorded as 56.4.
`CC(=O)O[C@H]1[C@H](O[C@H]2CC[C@]34C[C@]35CC[C@]3(C)[C@@H]([C@@]6(C)CC[C@@H](C(C)(C)O)O6)[C@@H](O)C[C@@]3(C)[C@@H]5C[C@H](O)[C@H]4C2(C)C)OC[C@@H](O)[C@@H]1O`: the mortality with Spodoptera litura [5] was 90.1%. Further, the IC50 in the series on HeLa worked out at 9.71 µM; in the series on DU-145, 11.3 µM; in the series on HEK293, 121 µM; in the series with MCF7, 2.93 µM; in the series on A549 it was 2.24 µM. In the series on Spodoptera litura [6], the Time came out at 13.4 days. Further, in the series with Spodoptera litura [7], the Activity is on record as 0.219 g. Further, in the series with Spodoptera litura [2], the mortality at 5 µg/cm2 worked out at 19.3%. Moreover, the ED50 with Spodoptera litura [3] was 1.689 microg/cm2. Moreover, in the series with Spodoptera litura [4], the Activity_index is on record as 64.1.
Consider `CC1(C)CC[C@]2(C)CC[C@]3(C)C(=CC[C@@H]4[C@@]5(C)CC[C@H](O)C(C)(C)[C@@H]5CC[C@]43C)[C@@H]2C1` [beta-AMYRIN], for which, in the series on Spodoptera litura [5], the mortality was 89.9%. In addition, the IC50 came out at 27.9 µM with HeLa; 27.9 µM in the series on DU-145; 94.4 µM in the series on HEK293; 35.3 µM in the series with MCF7; 23.6 µM with A549. Besides, the Time with Spodoptera litura [6] turned out to be 11.5 days. Moreover, in the series on Spodoptera litura [7], the Activity is on record as 0.232 g. Further, the mortality at 5 µg/cm2 in the series with Spodoptera litura [2] worked out at 10.9%. Moreover, the ED50 in the series with Spodoptera litura [3] came to 28.69 microg/cm2. For the same compound, the Activity_index in the series with Spodoptera litura [4] amounted to 59.4.
For `CC1(C)C[C@@H](O)[C@]2(C)CC[C@]3(C)C(=CC[C@@H]4[C@@]5(C)CC[C@H](O)[C@](C)(CO)[C@@H]5CC[C@]43C)[C@@H]2C1` [SOYASAPOGENOL B], the mortality in the series on Spodoptera litura [5] is 96.7%. Besides, the IC50 in the series with HeLa stood at 3.49 µM; in the series with DU-145, 10.9 µM; with HEK293, 124 µM; in the series with MCF7, 2.33 µM; in the series with A549, 2.1 µM. The Time with Spodoptera litura [6] worked out at 12.1 days. For the same compound, the Activity in the series with Spodoptera litura [7] worked out at 0.251 g. The mortality at 5 µg/cm2 in the series on Spodoptera litura [2] worked out at 11.6%. Also, the ED50 in the series with Spodoptera litura [3] is 5.22 microg/cm2. In addition, the Activity_index with Spodoptera litura [4] is reported as 68.1.
Turning to `COc1cccc2c1C(=O)c1c(O)c3c(c(O)c1C2=O)C[C@@](O)(C(=O)CO)C[C@@H]3O[C@H]1C[C@H](N)[C@H](O)[C@H](C)O1` [DOXORUBICIN], the IC50 in the series with HeLa came to 1.09 µM; with DU-145, 1.62 µM; with A549, 1.95 µM.
In the case of `CC1(C)C[C@@H](O)[C@]2(C)CC[C@]3(C)C(=CC[C@@H]4[C@@]5(C)CCC(=O)[C@](C)(CO)[C@@H]5CC[C@]43C)[C@@H]2C1`, the mortality in the series with Spodoptera litura [5] worked out at 11.2%. Also, the IC50 in the series on HeLa turned out to be 18.6 µM; with DU-145 it was 26 µM; in the series on HEK293 it was 95.6 µM; with MCF7 it was 28.7 µM; in the series with A549, 21.2 µM. For the same compound, the Time with Spodoptera litura [6] amounted to 11.1 days. Besides, in the series with Spodoptera litura [7], the Activity was 0.249 g. Further, the mortality at 5 µg/cm2 with Spodoptera litura [2] was 0%. Moreover, the Activity_index in the series with Spodoptera litura [4] was 21.8.
Take `C[C@@H]1C[C@H]([C@H](O)C(C)(C)O)O[C@H]2OC(=O)[C@@]3(C)[C@@H]4CC[C@H]5C(C)(C)C(=O)C=C[C@@]56C[C@@]46CC[C@]3(C)[C@H]21`: in the series with Spodoptera litura [5], the mortality stood at 91.3%. For the same compound, the half-inhibitory concentration (IC50) was 63.3 µM in the series with HeLa; 36.1 µM with DU-145; 158 µM in the series with HEK293; 27.2 µM with MCF7; 29.4 µM with A549. Further, the Time in the series on Spodoptera litura [6] was determined as 11.9 days. Further, the Activity in the series with Spodoptera litura [7] is on record as 0.226 g. For the same compound, the mortality at 5 µg/cm2 with Spodoptera litura [2] turned out to be 11.3%. The ED50 in the series with Spodoptera litura [3] stood at 12.239 microg/cm2. The Activity_index in the series with Spodoptera litura [4] is 61.2.
In the case of `C[C@@H]1C[C@H]([C@H](O)C(C)(C)O)O[C@H]2O[C@H](O)[C@@]3(C)[C@@H]4CC[C@H]5C(C)(C)[C@@H](O[C@@H]6OC[C@@H](O)[C@H](O)[C@H]6O)CC[C@@]56C[C@@]46CC[C@]3(C)[C@H]21`, the mortality in the series on Spodoptera litura [5] is reported as 92.4%. The IC50 was determined as 57 µM with HeLa; 59.2 µM in the series on DU-145; 79.2 µM in the series on HEK293; 43.2 µM in the series on MCF7; 37.5 µM in the series with A549. The Time in the series on Spodoptera litura [6] is 11.8 days. The Activity with Spodoptera litura [7] turned out to be 0.264 g. Also, the mortality at 5 µg/cm2 in the series on Spodoptera litura [2] was determined as 19.4%. Moreover, in the series with Spodoptera litura [3], the ED50 is on record as 3.61 microg/cm2. The Activity_index in the series on Spodoptera litura [4] is on record as 59.3.
